SMILES strings stand for the structures.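 The compound was tested at five concentrations on cells cultured in 96-well plates, with a 48-hour exposure period. GI50 = concentration required for 50% inhibition of growth.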 The source made the active and inactive calls. No stated cut-off is given here; in the data, active = GI50 up to about 1.1 µM and inactive = higher. Some results are limits rather than exact numbers.

What all share (assay): growth of human tumour cells (NCI), 48 h
The subject of test [1] is 786-0.
Test [2] has as its system A498.
Test [3] relates to CAKI-1.
Test [4] has as its system CCRF-CEM.
In test [5] the test system is HCC 2998.
In test [6] the test system is HCT-116.
The subject of test [7] is HCT-15.
Test [8] deals with HT-29.
The test system of test [9] is LOX IMVI.
For test [10], the system named is NCI-H522.
In test [11] the test system is SK-MEL-28.
The subject of test [12] is SK-MEL-2.
Test [13] concerns SN12C.
Test [14] relates to SW-620.
Test [15] deals with UACC-62.
The subject of test [16] is UO-31.
Test [17] has as its system HOP-62.
The subject of test [18] is SR.

For `COc1cc2c3c(c1OC)-c1ccccc1C(C(OC(C)=O)c1ccccc1)C3N(C)CC2` (configuration not stated), the GI50 is 74.5 µM (inactive) in [1]; 31.7 µM (inactive) in test [2]; 63 µM (inactive) in [3]; 25.1 µM (inactive) in test [4]; 6.81 µM (inactive) in test [5]; 34.5 µM (inactive) in test [6]. For the same compound, the GI50 was 27.7 µM in [7]; 38.3 µM (inactive) in [8]; 44.9 µM (inactive) in [9]; 49.2 µM (inactive) in test [10]; 31.8 µM (inactive) in test [11]; 17.2 µM (inactive) in [12]. In addition, the GI50 was 34.7 µM (inactive) in test [13], 65.3 µM (inactive) in [14], 34 µM (inactive) in [15] and 57.1 µM (inactive) in test [16].

For the compound `Cc1cc2occ(C)c(=O)c2c2c1OC(C)(C)S2`, the GI50 in test [1] was > 100 µM (inactive); in [4], 51.1 µM (inactive); in test [5] it was > 100 µM (inactive); in test [6], > 100 µM (inactive); in [7] it was above 100 µM; in [17] it was > 100 µM (inactive). Besides, the GI50 is 97.9 µM (inactive) in [8]; > 100 µM (inactive) in test [9]; 47.6 µM (inactive) in [10]; > 100 µM (inactive) in test [11]; > 100 µM (inactive) in test [12]; > 100 µM (inactive) in test [13]. The GI50 in [18] was 65.9 µM (inactive); in test [14], > 100 µM (inactive); in test [15], > 100 µM (inactive); in test [16], > 100 µM (inactive).

As for `O=C(NC12CC3CC(CC(C3)C1)C2)C(=O)c1c[nH]c2ccccc12`, the GI50 in [1] is 13.1 µM (inactive); in test [4], 16.4 µM (inactive); in test [5], 14.8 µM (inactive); in [6], 14.7 µM (inactive); in test [7], 12.1 µM; in [17], 19.1 µM (inactive). For the same compound, the GI50 is 2.83 µM (inactive) in test [8]; 13.1 µM (inactive) in [9]; 16.3 µM (inactive) in test [10]; 16.3 µM (inactive) in [11]; 17.9 µM (inactive) in [12]; 16.5 µM (inactive) in test [13]. Further, the GI50 in test [18] is 17.8 µM (inactive); in [15], 13.4 µM (inactive); in test [16], 20 µM (inactive).

Take `CCOC(=O)c1nc(-c2ccccc2)oc1OCC`: the GI50 in test [1], in [4], in test [5], in test [6], in test [17] and in test [8] was > 100 µM (inactive) in each case. The GI50 in [9] is 36.8 µM (inactive); in test [10], > 100 µM (inactive); in [11] it was > 100 µM (inactive); in [13] it was > 100 µM (inactive); in test [14], > 100 µM (inactive); in [15], > 100 µM (inactive).

In the case of `O=C(/C=C\c1cccc2ccccc12)c1ccc(Br)cc1`, the GI50 in test [1] is 19.2 µM (inactive); in [2] it was > 100 µM (inactive); in test [3], 33 µM (inactive); in [4], 20.9 µM (inactive); in test [5], 17.5 µM (inactive); in test [6] it was 16.7 µM (inactive). The GI50 was 17.7 µM in test [7]; > 100 µM (inactive) in test [17]; 18.2 µM (inactive) in [8]; 21 µM (inactive) in [10]; 12.1 µM (inactive) in test [11]; 34.8 µM (inactive) in test [13]. Besides, the GI50 in test [14] was 12.1 µM (inactive); in test [15], 15.2 µM (inactive); in test [16], 19.1 µM (inactive).

On to `Cc1cc(O)nc(NNC(C#N)c2c(O)ccc3ccccc23)n1` (configuration not stated), for which the GI50 is 3.52 µM (inactive) in test [1]; 3.18 µM (inactive) in test [3]; 1.73 µM (inactive) in test [4]; 2.43 µM (inactive) in test [6]; 1.82 µM in [7]; 6.5 µM (inactive) in test [17]. Also, the GI50 in test [8] is 17.3 µM (inactive); in test [9], 4.08 µM (inactive); in [10], 8.89 µM (inactive); in [11], 5.18 µM (inactive); in test [12] it was 12.2 µM (inactive); in [13] it was 3.18 µM (inactive). In addition, the GI50 in [18] is 2.7 µM (inactive); in [14] it was 4.56 µM (inactive); in test [15], 2.87 µM (inactive); in [16], 1.73 µM (inactive).

With `COC(=O)CCCCCOS(=O)(=O)c1ccc(C)cc1`, the GI50 in test [1] is > 100 µM (inactive); in test [2], > 100 µM (inactive); in [4] it was > 100 µM (inactive); in [5], > 100 µM (inactive); in [6], > 100 µM (inactive); in test [7] it was above 100 µM. Besides, the GI50 in test [8], in test [9], in test [10], in test [11], in test [12] and in [13] was > 100 µM (inactive) in each case. Also, the GI50 in [18], in [14], in [15] and in test [16] was > 100 µM (inactive) each time.

On to `N/N=C(/C(=O)Nc1cccc(Cl)c1)C(C(=O)c1ccc(O)cc1O)C1OC(=O)c2ccccc21` (configuration not stated), for which the GI50 was > 100 µM (inactive) in test [1]; 25.5 µM (inactive) in test [2]; 35.1 µM (inactive) in [4]; > 100 µM (inactive) in test [5]; > 100 µM (inactive) in test [6]; above 100 µM in [7]. The GI50 in test [17] is > 100 µM (inactive); in test [8], > 100 µM (inactive); in [9], 87.7 µM (inactive); in [10], 71 µM (inactive); in [11] it was > 100 µM (inactive); in test [12], > 100 µM (inactive). Also, the GI50 in test [13] was > 100 µM (inactive); in test [18], 40.4 µM (inactive); in [14], > 100 µM (inactive); in test [15], 52.8 µM (inactive); in test [16], > 100 µM (inactive).

As for `O=C1CCN2CCC(=O)c3c2c(cc2ccccc32)N1`, the GI50 in test [1], in [2], in [3], in test [4], in test [5] and in test [6] was > 100 µM (inactive) in each case. For the same compound, the GI50 in [7] was above 100 µM; in test [17], > 100 µM (inactive); in test [8], > 100 µM (inactive); in [9], > 100 µM (inactive); in [10], > 100 µM (inactive); in test [12], > 100 µM (inactive). In addition, the GI50 in [13] is > 100 µM (inactive); in [14], > 100 µM (inactive); in [15], > 100 µM (inactive); in [16], 75.5 µM (inactive).

As to `O=C1CCC2(O)c3ccccc3C2Cc2ccccc21` (configuration not stated), the GI50 in test [1], in test [4], in test [5], in test [6], in test [17] and in test [8] was > 100 µM (inactive) in each case. The GI50 in [9], in test [11], in test [12], in [13], in test [18] and in test [14] was > 100 µM (inactive) each time. Besides, the GI50 in test [15] is > 100 µM (inactive).

Consider `COC(=O)C1CCC(C)CC1=O` (configuration not stated), for which the GI50 in test [1], in test [2], in test [3], in test [4], in test [5] and in test [6] was > 100 µM (inactive) in each case. Moreover, the GI50 was above 100 µM in [7]; 99.8 µM (inactive) in test [17]; > 100 µM (inactive) in [8]; > 100 µM (inactive) in test [9]; > 100 µM (inactive) in test [10]; > 100 µM (inactive) in test [11]. Besides, the GI50 in test [12], in test [13], in test [14], in test [15] and in test [16] was > 100 µM (inactive) throughout.

On to `CCOC(=O)[C@H]1Nc2ccc([N+](=O)[O-])cc2C2c3ccccc3CC21` (some centres not stated), for which the GI50 in [1] was 19.7 µM (inactive); in test [3], 27.8 µM (inactive); in [4], 0.337 µM (active); in test [5], 21.3 µM (inactive); in test [6] it was 16.7 µM (inactive); in test [7], 15.3 µM. Further, the GI50 in [17] is 18.9 µM (inactive); in test [8], 16 µM (inactive); in test [9], 17.9 µM (inactive); in test [10], 6.7 µM (inactive); in test [11], 12.1 µM (inactive); in test [12] it was 31.6 µM (inactive). Further, the GI50 in test [13] is 15.5 µM (inactive); in test [18] it was 9.93 µM (inactive); in [14], 11.9 µM (inactive); in test [15], 12.2 µM (inactive); in [16], 15 µM (inactive).

On to `CCCCOP1(=O)CC(C)=C(Cl)C(C)(OC)C1` (configuration not stated), for which the GI50 in test [1] was > 100 µM (inactive); in [4], 28.4 µM (inactive); in test [5] it was > 100 µM (inactive); in [6], 61.4 µM (inactive); in [7], above 100 µM; in test [17] it was > 100 µM (inactive). The GI50 was > 100 µM (inactive) in [8]; > 100 µM (inactive) in test [9]; 37.9 µM (inactive) in [10]; > 100 µM (inactive) in test [11]; 41 µM (inactive) in [12]; > 100 µM (inactive) in test [13]. In addition, the GI50 was 31.8 µM (inactive) in test [18], 46.7 µM (inactive) in [14], > 100 µM (inactive) in test [15] and > 100 µM (inactive) in test [16].

The record behind these values is ChEMBL document CHEMBL1201862, “PubChem BioAssay data set” (2004).
